Measurements published in patent publication US9585878B2, “Treatment of BDNF-related disorders using laquinimod” (TEVA PHARMACEUTICAL INDUSTRIES, LTD., priority 2009, dated 2017).
Entries after “also recorded” stand apart in the source; their conditions may differ.

How the values were obtained:
Balb/c mice [1] = test: Open Field Test (motility and anxiety parameters); type: in vivo
Experimental: The Open Field Test—Exploratory locomotor activity used in Examples 3.1 and 3.2 described below is one of the most popular in evaluation of animals' behavior. It tests both motility parameters and anxiety (Prut et al). An individual mouse is placed in a novel plexiglass arena of 50×50 cm the floor of which is divided into 3 digital zones: the outer peripheral zone 1, the medial zone 2 and the most central zone 3. The animal behavior in the open field is recorded by videotaping for 20 min and is analyzed subsequently digitally using Noldus software for animal behavior. The measurements include general motility (distance moved, velocity and strong mobility) and anxiety parameters (including frequency of visits to the central area, time spent in the inner field, and number of rearing events in the center). The more the animal stays and performs in the center, the less anxious it is.
Balb/c male mice were divided to 6 groups (5/group) and administered laquinimod (1, 5, 10 and 25 mg/kg p.o. in the form of laquinimod sodium solution via gavage), fluoxetine (positive control 10 mg/kg po) or vehicle daily for 3 days. On the third day, 90 min following administration, mice were exposed to the open field for 20 min. Behavior was video recorded and analyzed using Ethovision software (Noldus Holland).
Balb/c male mice were divided to 6 groups (5/group) and administered laquinimod (0.5, 1, 5 and 25 mg/kg p.o. in the form of laquinimod sodium solution via gavage), fluoxetine (positive control 10 mg/kg po) or vehicle daily for 3 days. On the third day, 90 min following administration, mice were exposed to the open field test for 20 minutes. Behavior was video recorded and analyzed using Ethovision software (Noldus Holland).

Balb/c mice [2] = test: Forced Swim Test (FST); type: in vivo
[3] = system: brain-derived neurotrophic factor (BDNF); test: Clinical trial in RRMS patients: BDNF concentration in serum by sandwich ELISA; type: in vivo, human; conditions: for Mean BDNF concentration in serum: RRMS patients
Experimental: A study was initiated in relapsing remitting multiple sclerosis (RRMS) patients using laquinimod, 0.6 mg daily, in the form of the sodium salt, in an oral, once-daily tablet formulation. The study was a multinational, multicenter, randomized, double-blind, parallel-group, placebo controlled study assessing the efficacy, tolerability and safety of two doses of laquinimod in subjects with RRMS. Eligible subjects were randomized into the following three groups:
1. 0.6 mg of laquinimod per os (p.o.) once daily;
2. 0.3 mg of laquinimod per os (p.o.) once daily; and
3. Matching placebo, per os (p.o.) once daily. Subjects must meet the following inclusion criteria to be included in the study:
• 1. a confirmed MS diagnosis as defined by the McDonald criteria; • 2. a RRMS disease course; • 3. at least one documented relapse n the 12 months prior to screening; • 4. at least one Gadolinium-enhanced lesion on their screening MRI scan; • 5. ambulatory with a Kurtzke EDSS score of 1.0-5.0 (Converted); • 6. between 18-50 years of age inclusive; • 7. relapse-free and off corticosteroids or ACTH for at least 30 days prior to the MRI scan at screening; • 8. relapse-free and off corticosteroids between screening and randomization; • 9. women of child-bearing potential practiced a reliable method of birth control; • 10. willing and able to comply with the protocol requirements for the duration of the study; and • 11. able to give signed, written and informed consent prior to entering the study. Subjects meeting any one of the following exclusion criteria were excluded from the study: • 1. suffered from any form of progressive MS; • 2. use of immunosuppressive or cytotoxic treatments within 6 months prior to the screening visit (including azathioprine, cyclophosphamide and methotrexate); • 3. use of experimental drugs, and/or participation in drug clinical studies within the 6 months prior to screening; • 4. previous treatment with immunomodulators (including IFN-β1a and 1b, glatiramer acetate, laquinimod and IVIG) within the 2 months prior to screening; • 5. use of potent inhibitors of CYP3A4, for example, oral ketoconazole and erythromycin within 2 weeks prior to baseline visit; • 6. previous use of amiodarone; • 7. use of fluoxetine one month prior to baseline visit; • 8. use of substrates of CYP1A2 such as theophylline and warfarin within 2 weeks prior to screening; • 9. previous treatment with cladribine within the last 2 years prior to screening visit; • 10. subjects for whom potential immunosuppression would be contraindicated, for example, Hepatitis B/C or HIV. • 11. previous total body irradiation or total lymphoid irradiation; • 12. chronic corticosteroid treatment (30 or more consecutive days) within the 2 months prior to screening; • 13. pregnancy or breastfeeding; • 14. subjects with a clinically significant or unstable medical or surgical condition that would preclude safe and complete study participation as determined by medical history, physical exams, ECG, abnormal laboratory tests and chest X-ray. • 15. inability to give informed consent, or to complete the study, or if the subject is considered by the investigator to be, for any reason, an unsuitable candidate for the study; • 16. a known history of sensitivity to Gd; or • 17. inability to successfully undergo MRI scanning.
The study duration was 40 weeks and consisted of 2 periods: 4 weeks of screening period (week −4 [ screening] to week 0 [ baseline]) and 36 weeks of double blind treatment (week 0 [ baseline] to week 36 [ termination]).
Subjects were evaluated at study sites at weeks −4, 0, 4, 8, 12, 16, 20, 24, 28, 32 and 36. Samples for inflammatory markers were collected at all visits between 0 and 36 weeks.
BDNF concentration in serum was measured in patients in the placebo group (102 patients were in the group) and in the 0.6 mg laquinimod group (106 patients were in the group) at week 0 (V0), week 12 (v3) and week 36 (V9). […]

Balb/c mice [4] = test: Elevated Plus Maze (EPM); type: in vivo
Excerpt: The EPM model used in Examples 4.1 and 4.2 described below utilizes the natural fear of rodents to avoid open and elevated places. The apparatus consists of a plus-maze with two enclosed and two opposite open arms, elevated above the floor. […] This is one of the most widely used models to study effects of anxiety-like behavior. The maze consisted of two opposing open arms (40×10 cm) and two opposing closed arms (40×10 cm, with 40 cm walls) on a platform 50 cm above the ground. Mice were placed in the center square (10×10 cm) facing an open arm and videotaped during a 5 min exploration. Arm entries and duration were scored when all four paws enter the arm. Balb/c male mice were divided to 6 groups (5/group) and administered laquinimod (0.5, 1, 5 and 25 mg/kg p.o. in the form of laquinimod sodium solution via gavage), fluoxetine (positive control 10 mg/kg po) or vehicle daily for 3 days. On the third day, 90 min following administration, mice were exposed to the EPM for 5 minutes. Mice were placed in the center square (10×10 cm) facing an open arm and videotaped during a 5 minute exploration. Arm entries and duration was scored when all four paws enter the arm. Behavior was video recorded and analyzed using Ethovision software (Noldus Holland). Balb/c male mice were divided to 6 groups (5/group) and administered laquinimod (0.5, 1, 5 and 25 mg/kg p.o. in the form of laquinimod sodium solution via gavage), fluoxetine (positive control 10 mg/kg po) or vehicle daily for 3 days. On the third day, 90 min following administration, mice were exposed to the EPM for 5 min. Behavior was video recorded and open arms parameters were analyzed using Ethovision software (Noldus Holland).

Compound: CNCCC(Oc1ccc(C(F)(F)F)cc1)c1ccccc1 (stereo not drawn) [fluoxetine, reference compound]
- Anxiety parameters (zone 2) in open field (Balb/c mice [1]; Example 3.1, 10 mg/kg p.o. daily for 3 days): tended to perform more in the center
- Motility parameters in open field (Balb/c mice [1]; Example 3.1, 10 mg/kg p.o. daily for 3 days, 20 min): did not modify significantly the motility parameters
- Anxiety parameters (zones 2+3) in open field (Balb/c mice [1]; Example 3.2, 10 mg/kg p.o. daily for 3 days): significant anxiolytic effect
- Anxiety parameters (zones 2+3) in open field (Balb/c mice [1]; Example 3.2, 10 mg/kg p.o. daily for 3 days, listed as Fluoxetine): performed significantly more in the center
- Antidepressant activity in FST (Balb/c mice [2]; Example 2.1, positive control 10 mg/kg p.o. daily for 3 days): did not show significant effect
- Antidepressant activity in FST (Balb/c mice [2]; Example 2.2, positive control 10 mg/kg p.o. daily for 3 days): trend to the same activity

Compound: CCN(C(=O)c1c(O)c2c(Cl)cccc2n(C)c1=O)c1ccccc1 [Laquinimod, N-ethyl-N-phenyl-1,2-dihydro-4-hydroxy-5-chloro-1-methyl-2-oxoquinoline-3-carboxamide]
- Difference in BDNF versus placebo group ([3]; 0.6 mg/day, V9 (week 36)): statistically significant
- Elevation of BDNF versus placebo group ([3]; 0.6 mg/day, starting from V3 (week 12), Confidence Level of 95%): statistically significant elevation of BDNF
- Mean BDNF concentration in serum ([3]; 0.6 mg laquinimod p.o. once daily group, baseline week 0 (V0)): 13892.7 pg/mL
- Mean BDNF concentration in serum ([3]; 0.6 mg laquinimod p.o. once daily, week 12 (V3)): 15519.6 pg/mL
- Mean BDNF concentration in serum ([3]; 0.6 mg laquinimod p.o. once daily, week 36 (V9)): 15335.8 pg/mL
- Difference in mean BDNF, Laquinimod 0.6 mg-Placebo (t Test, unequal variances) ([3]; baseline week 0 (V0)): -218.0 pg/mL
- Difference in mean BDNF, Laquinimod 0.6 mg-Placebo (t Test, unequal variances) ([3]; week 12 (V3)): 2445.70 pg/mL
- Difference in mean BDNF, Laquinimod 0.6 mg-Placebo (t Test, unequal variances) ([3]; week 36 (V9)): 2552.21 pg/mL
- Most potent dose, anxiety parameters (zones 2 and 3) in open field (Balb/c mice [1]; Example 3.1): 1 mg/kg
- Motility parameters in open field (Balb/c mice [1]; Example 3.1, 1-25 mg/kg/d x3d p.o., 20 min): did not modify significantly the motility parameters; also recorded: did not modify general mobility parameters
- Anxiety parameters (zone 2) in open field (Balb/c mice [1]; Example 3.1, 1-25 mg/kg/d x3d p.o., frequency, time spent, distance moved, rearings): tendency toward anxiolytic effect
- Anxiety parameters (zone 2) in open field (Balb/c mice [1]; Example 3.1, 1-25 mg/kg/d x3d p.o., frequency, time spent, distance moved, rearings, listed as laquinimod): tended to perform more in the center
- Anxiety parameters (zones 2 and 3) in open field (Balb/c mice [1]; Example 3.1, 1-25 mg/kg/d x3d p.o., time spent, distance moved, rearings): tendency toward anxiolytic effect
- Anxiety parameters (zones 2 and 3) in open field (Balb/c mice [1]; Example 3.1, 1-25 mg/kg/d x3d p.o., time spent, distance moved, rearings, listed as laquinimod): tended to perform more in the center
- Most potent dose, anxiety parameters in open field (Balb/c mice [1]; Example 3.2): 5 mg/kg
- Motility parameters in open field (Balb/c mice [1]; Example 3.2, 0.5-5 mg/kg (0.5-25 mg/kg/d x3d p.o. tested)): slight increase in motility
- Anxiety parameters (zones 2+3) in open field (Balb/c mice [1]; Example 3.2, 0.5-5 mg/kg p.o. daily for 3 days, frequency, time spent, rearings): performed significantly more in the center; also recorded: significant anxiolytic effect
- Antidepressant activity (increased mobility, reduced immobility) in FST (Balb/c mice [2]; Example 2.1, 1 mg/kg p.o. daily for 3 days, 90 min after last dose): significant antidepressant activity
- Most active dose in FST (Balb/c mice [2]; Example 2.1, doses tested 1-25 mg/kg/d x3d p.o.): 1 mg/kg
- Antidepressant activity (increased mobility, reduced immobility) in FST (Balb/c mice [2]; Example 2.1, higher doses (25 mg/kg) p.o. daily for 3 days): trend to significance
- Antidepressant activity (increased mobility, reduced immobility) in FST (Balb/c mice [2]; Example 2.2, 5 and 25 mg/kg p.o. daily for 3 days): significant antidepressant activity
- Anxiolytic activity in EPM (Balb/c mice [4]; Example 4.1, 0.5, 1, 5 and 25 mg/kg p.o. daily for 3 days): anxiolytic activity in a dose dependent manner
- Anxiolytic effect in EPM (activity on the open arm) (Balb/c mice [4]; Example 4.1, 5 and 25 mg/kg/d x3d p.o., 5 min): significant anxiolytic effect
- Dose of maximal effect in EPM (Balb/c mice [4]; Example 4.1, p.o.): 25 mg/kg
- Anxiolytic activity in EPM (Balb/c mice [4]; Example 4.2, 0.5, 1, 5 and 25 mg/kg p.o. daily for 3 days): anxiolytic activity in a dose dependent manner
- Anxiolytic effect in EPM (open arm parameters) (Balb/c mice [4]; Example 4.2, 5-25 mg/kg/d x3d p.o., 5 min): significant anxiolytic effect
- Dose of maximal effect in EPM (Balb/c mice [4]; Example 4.2, p.o.): 5 to 25 mg/kg
